In brackets after ≈: the same amount, converted by molar mass. Read-outs that look alike come from different tables or passages of the source.
Key:
C. albicans NCPF3281 = test: Candida panel MIC, serial dilution in 96-well plates; format: cell-based, Candida albicans; details: Candida albicans, NCPF3281; Table 4, common panel; 24 hours, ≥50% inhibition; read-out: MIC C. albicans NCPF3281
Protocol: (§1) The minimum inhibitory concentration of test compounds were determined in a panel of Candida species (see Table 4 below), using the a serial dilution method in 96-well plates using the following protocol.
(§2) Starter cultures of fungal strains to be tested were grown in 3 mL of RPMI 2% glucose media incubated at 37° C. with shaking at 200 rpm overnight. The culture media used was 900 mL H2O; 10.4 g RPMI 1640 (with L-glutamine and a pH indicator but without bicarbonate); 34.5 g MOPS and 18 g glucose. The pH of the media was adjusted to 7.0 with 1 M sodium hydroxide.
(§3) Solutions of the compound to be tested were prepared by dissolving the compound in DMSO and subsequently into media to the desired concentrations. 200 μL of compound solution was then added to the wells of the 96-well plate using a serial dilution method row-by row of the plate to give a compound concentration gradient across the plate of from 128 μg/mL to 0.25 μg/mL. The last two rows of each plate were control rows containing the culture media alone and the media plus fungi.
(§4) The fungi starter cultures were diluted 1:10 in water in cuvettes. This was then further diluted to an optical density (OD600) of 0.01 in media. 100 μL of the fungi was added to each well giving a starting concentration of fungus of 0.5-5×10^5/mL. One species of fungus was used on each plate. The plates were then held at 37° C. for 24 hours.
(§5) A plate reader was used to measure growth in each well at OD530 nm and the MIC was determined for each test compound. The MIC is defined as the lowest concentration giving rise to inhibition of ≥50% of that of the drug-free control well containing the fungus and media.

C. glabrata NCPF8018 = test: as above; format: cell-based, Candida glabrata; details: Nakaseomyces glabratus
Protocol: as §1, §2
(§6) Solutions of the compound to be tested were prepared by dissolving the compound in DMSO and subsequently into media to the desired concentrations. […] The last two rows of each plate were control rows containing the culture media alone and the media plus fungi.
as §4, §5

C. krusei NCPF3876 = test: microbe, parasite or virus in culture; format: cell-based, Candida krusei; details: Pichia kudriavzevii
Protocol: as §1, §2, §6, §4, §5

C. parapsilosis NCPF3209 = test: microbe, parasite or virus in culture; format: cell-based, Candida parapsilosis; details: Lodderomyces parapsilosis
Protocol: as §1, §2, §6, §4, §5

C. auris TDG1912 = test: Candida panel MIC, serial dilution in 96-well plates; format: cell-based; details: Candidozyma auris, TDG1912; Table 4; 24 hours, ≥50% inhibition; read-out: MIC C. auris TDG1912
Protocol: as §1, §2, §3, §4, §5

C. tropicalis NCPF8760 = test: as above; format: cell-based
Protocol: as §1, §2, §3, §4, §5

Candida auris TDG2211 = test: microbe, parasite or virus in culture; format: cell-based; details: Candidozyma auris, TDG2211; Table 4, extended panel; 24 hours, ≥50% inhibition; read-out: MIC Candida auris TDG2211
Protocol: as §1, §2, §6, §4, §5
(§7) The Candida auris strains shown in Table 7 were either taken from the National Collection of Pathogenic Fungi (NCPF) or collected as part of ongoing surveillance studies. The strains were characterised as follows.

Candida auris TDG2506 = test: microbe, parasite or virus in culture; format: cell-based; details: Candidozyma auris, TDG2506; Table 4, extended panel; 24 hours, ≥50% inhibition; read-out: MIC Candida auris TDG2506
Protocol: as §1, §2, §6, §4, §5, §7

Candida auris TDG1102 = test: Candida panel MIC, serial dilution in 96-well plates; format: cell-based; details: Candidozyma auris, TDG1102; Table 4, extended panel; 24 hours, ≥50% inhibition; read-out: MIC Candida auris TDG1102
Protocol: as §1, §2, §3, §4, §5

Candida auris TDG2512 = test: as above; format: cell-based; details: Candidozyma auris, TDG2512; Table 4, extended panel; 24 hours, ≥50% inhibition; read-out: MIC Candida auris TDG2512
Protocol: as §1, §2, §3, §4, §5

C. auris 8971 = test: as above; format: cell-based, Candida auris; details: Candidozyma auris, 8971; Table 4, extended panel; 24 hours, ≥50% inhibition; read-out: MIC C. auris 8971
Protocol: as §1, §2, §6, §4, §5, §7

C. auris 8977 = test: as above; format: cell-based, Candida auris; details: Candidozyma auris, 8977; Table 4, extended panel; 24 hours, ≥50% inhibition; read-out: MIC C. auris 8977
Protocol: as §1, §2, §6, §4, §5, §7

C. auris 8984 = test: as above; format: cell-based, Candida auris; details: Candidozyma auris, 8984; Table 4, extended panel; 24 hours, ≥50% inhibition; read-out: MIC C. auris 8984
Protocol: as §1, §2, §6, §4, §5, §7

[1] = NCPF8018, Table 4, common panel, 24 hours, ≥50% inhibition, read-out: MIC C. glabrata NCPF8018
[2] = NCPF3876, Table 4, common panel, 24 hours, ≥50% inhibition, read-out: MIC C. krusei NCPF3876
[3] = NCPF3209, Table 4, common panel, 24 hours, ≥50% inhibition, read-out: MIC C. parapsilosis NCPF3209
[4] = NCPF8760, Table 4, common panel, 24 hours, ≥50% inhibition, read-out: MIC C. tropicalis NCPF8760
[5] = NCPF8018, read-out: MIC C. Glabrata NCPF8018
[6] = NCPF3876, read-out: MIC C. Krusei NCPF3876
[7] = NCPF3209, read-out: MIC C. Parapsilosis NCPF3209
[8] = NCPF8760, read-out: MIC C. Tropicalis NCPF8760

| Compound | MIC (C. albicans NCPF3281) [ng/mL] | MIC (C. glabrata NCPF8018; [1]) [ng/mL] | MIC (C. krusei NCPF3876; [2]) [ng/mL] | MIC (C. parapsilosis NCPF3209; [3]) [ng/mL] | MIC (C. auris TDG1912) [ng/mL] | MIC (C. tropicalis NCPF8760; [4]) [ng/mL] | MIC (C. glabrata NCPF8018; [5]) [ng/mL] | MIC (C. krusei NCPF3876; [6]) [ng/mL] | MIC (C. parapsilosis NCPF3209; [7]) [ng/mL] | MIC (Candida auris TDG2211) [ng/mL] | MIC (Candida auris TDG2506) [ng/mL] | MIC (C. tropicalis NCPF8760; [8]) [ng/mL] | MIC (Candida auris TDG1102) [ng/mL] | MIC (Candida auris TDG2512) [ng/mL] | MIC (C. auris 8971) [ng/mL] | MIC (C. auris 8977) [ng/mL] | MIC (C. auris 8984) [ng/mL] |
| --- | --- | --- | --- | --- | --- | --- | --- | --- | --- | --- | --- | --- | --- | --- | --- | --- | --- |
| OC(CN1CCC2(CCN(Cc3ccccc3)CC2)CC1)(Cn1cncn1)c1ccc(F)cc1F (stereo not shown) [Example 1, 1-(9-Benzyl-3,9-diazaspiro[5.5]undecan-3-yl)-2-(2,4-difluorophenyl)-3-(1H-1,2,4-triazol-1-yl)propan-2-ol] | 500 to 1000 (≈ 1.04 to 2.08 µM) | ≤ 125 | 1000 to 2000 (≈ 2.08 to 4.15 µM) | 4000 to 8000 (≈ 8.31 to 16.6 µM) | ≤ 125 | 250 to 1000 (≈ 0.519 to 2.08 µM) |  |  |  |  |  |  |  |  |  |  |  |
| OC(CN1CCC2(CCN(c3ncc(F)cn3)CC2)C1)(Cn1cncn1)c1ccc(F)cc1F (stereo not shown) [Example 7, 2-(2,4-Difluorophenyl)-1-(8-(5-fluoropyrimidin-2-yl)-2,8-diazaspiro[4.5]decan-2-yl)-3-(1H-1,2,4-triazol-1-yl)propan-2-ol] | < 8 | 250 (≈ 0.528 µM) | 60 (≈ 0.127 µM) | 4 (≈ 0.00845 µM) | 120 (≈ 0.253 µM) | 15 (≈ 0.0317 µM) | 250 (≈ 0.528 µM) | 60 (≈ 0.127 µM) | 4 (≈ 0.00845 µM) | 125 (≈ 0.264 µM) | 500 (≈ 1.06 µM) | 15 (≈ 0.0317 µM) | 250 (≈ 0.528 µM) | 30 (≈ 0.0634 µM) | 30 (≈ 0.0634 µM) | 2 (≈ 0.00422 µM) | 120 (≈ 0.253 µM) |
| OC(CN1CCCN(c2ncc(F)cn2)CC1)(Cn1cncn1)c1ccc(F)cc1F (stereo not shown) [Example 8, 2-(2,4-Difluorophenyl)-1-(4-(5-fluoropyrimidin-2-yl)-1,4-diazepan-1-yl)-3-(1H-1,2,4-triazol-1-yl)propan-2-ol] | < 15 | 250 (≈ 0.577 µM) | 500 (≈ 1.15 µM) | 15 (≈ 0.0346 µM) | 2000 (≈ 4.61 µM) | 1000 (≈ 2.31 µM) |  |  |  | 1000 (≈ 2.31 µM) | 8000 (≈ 18.5 µM) |  | 1000 (≈ 2.31 µM) | 2000 (≈ 4.61 µM) | 120 (≈ 0.277 µM) | 120 (≈ 0.277 µM) | 120 (≈ 0.277 µM) |
| OC(CN1CCCC(Nc2ccc(Cc3ccccc3)cc2)CC1)(Cn1cncn1)c1ccc(F)cc1F (stereo not shown) [Example 9, 1-(4-((4-Benzylphenyl)amino)azepan-1-yl)-2-(2,4-difluorophenyl)-3-(1H-1,2,4-triazol-1-yl)propan-2-ol] | < 4 | 125 (≈ 0.241 µM) | 8 (≈ 0.0155 µM) | ≤ 0.06 | 500 (≈ 0.966 µM) | 125 (≈ 0.241 µM) | 125 (≈ 0.241 µM) | 8 (≈ 0.0155 µM) | ≤ 0.06 | 250 (≈ 0.483 µM) | 500 (≈ 0.966 µM) | 500 (≈ 0.966 µM) | 1000 (≈ 1.93 µM) | 125 (≈ 0.241 µM) | 120 (≈ 0.232 µM) | 0.1 (≈ 0.000193 µM) | 120 (≈ 0.232 µM) |
| OC(CN1CCCCN(c2cnccn2)CC1)(Cn1cncn1)c1ccc(F)cc1F (stereo not shown) [Example 17, 2-(2,4-Difluorophenyl)-1-(4-(pyrazin-2-yl)-1,4-diazocan-1-yl)-3-(1H-1,2,4-triazol-1-yl)propan-2-ol] | ≤ 125 | 120 (≈ 0.279 µM) | 4000 (≈ 9.31 µM) | ≤ 125 | 4000 to 16000 (≈ 9.31 to 37.3 µM) | 4000 to 8000 (≈ 9.31 to 18.6 µM) |  |  |  |  |  |  |  |  |  |  |  |
| CC(C)COc1ccc(NC2CCN(CC(O)(Cn3cncn3)c3ccc(F)cc3F)CC2)cc1 (stereo not shown) [Example 84] | 1.95 (≈ 0.00402 µM) | 60 (≈ 0.124 µM) | 30 (≈ 0.0618 µM) | 0.98 to 1.95 (≈ 0.00202 to 0.00402 µM) |  | 125 (≈ 0.257 µM) | 60 (≈ 0.124 µM) | 30 (≈ 0.0618 µM) | 0.98 to 1.95 (≈ 0.00202 to 0.00402 µM) | 0.98 to 1.95 (≈ 0.00202 to 0.00402 µM) | 30 (≈ 0.0618 µM) | 125 (≈ 0.257 µM) | 15.6 (≈ 0.0321 µM) | 1.95 to 3.91 (≈ 0.00402 to 0.00805 µM) | 1.95 to 3.91 (≈ 0.00402 to 0.00805 µM) | 3.91 (≈ 0.00805 µM) | 30 (≈ 0.0618 µM) |
| COc1ccc(Oc2ccc(NC3CCN(CC(O)(Cn4cncn4)c4ccc(F)cc4F)CC3)cc2)cc1 (stereo not shown) [Example 86] | 7.8 to 15.6 (≈ 0.0146 to 0.0291 µM) | 500 (≈ 0.934 µM) | 15 to 125 (≈ 0.028 to 0.233 µM) | 0.98 to 7.8 (≈ 0.00183 to 0.0146 µM) |  | 125 (≈ 0.233 µM) | 500 (≈ 0.934 µM) | 15 to 125 (≈ 0.028 to 0.233 µM) | 0.98 to 7.8 (≈ 0.00183 to 0.0146 µM) | 7.8 (≈ 0.0146 µM) | 62.5 (≈ 0.117 µM) | 125 (≈ 0.233 µM) | 15 to 62.5 (≈ 0.028 to 0.117 µM) | 7.8 (≈ 0.0146 µM) | 0.98 to 30 (≈ 0.00183 to 0.056 µM) | 0.98 to 3.9 (≈ 0.00183 to 0.00728 µM) | 7.8 to 125 (≈ 0.0146 to 0.233 µM) |

Source: patent US20240246920A1, “TRIAZOLE DERIVATIVES WITH ANTIFUNGAL ACTIVITY” (King's College London, priority 2020, published 2024)
